Test results reported in patent US20200017495A1, “NOVEL HETEROCYCLIC COMPOUNDS AND THEIR USE IN PREVENTING OR TREATING BACTERIAL INFECTIONS” (priority 2017, published 2020).

Assays:
Test in all cases: MIC of compounds alone and combined with antibacterials, broth microdilution (CLSI)
Type in all cases: cell-based
[1] = tested on: Klebsiella oxytoca (KOX) isolates
How it was run: (§1)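 Antibacterial MICs in combination were determined at every compound concentration tested, alongside compound MICs alone. Bacteria grew in cation-adjusted Mueller-Hinton broth starting from 5.10^5 CFU/mL, incubated at 35° C for 16-20 h, and endpoints were the lowest concentrations with no visible growth.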

[2] = tested on: Serratia marcescens (SMA) isolates
How it was run: as §1

[3] = tested on: Citrobacter koseri (CKR) isolates
How it was run: as §1

[4] = tested on: Escherichia coli (ECO) isolates
How it was run: as §1

[5] = tested on: Citrobacter freundii (CFR) isolates
How it was run: as §1

[6] = tested on: Enterobacter aerogenes (EAE) isolates
How it was run: as §1

Question: With `CO/N=C(\C(=O)N[C@@H]1C(=O)N2C(C(=O)O)=C(COC(N)=O)CS[C@H]12)c1ccco1` [FUR, Cefuroxime] as the compound, how does the MIC ([1]; strain KOX UFR21, genotype TEM-1, CTX-M-15, OXA-48) read?
Answer: The MIC was greater than 256 mg/L.

Question: What about the MIC ([1]; strain KOX UFR173, genotype OXY2-2) of the same compound?
Answer: The MIC was greater than 256 mg/L.

Question: And the MIC ([1]; strain KOX UFR223, genotype SHV-11, OXA-48)?
Answer: The MIC was 8 mg/L.

Question: And the MIC ([1]; strain KOX UFR224, genotype CTX-M-15, OXA-48)?
Answer: Its MIC is greater than 256 mg/L.

Question: What about the MIC ([2]; strain SMA UFR30, genotype OXA-405) of the same compound?
Answer: The MIC was greater than 256 mg/L.

Question: What about the MIC ([2]; strain SMA UFR134, genotype TEM-1, BES-1) of the same compound?
Answer: Its MIC is greater than 256 mg/L.

Question: And the MIC ([2]; strain SMA UFR135, genotype TEM-1, KPC-2)?
Answer: The MIC was greater than 256 mg/L.

Question: What about the MIC ([2]; strain SMA UFR136, genotype TEM-1, SHV-12, KPC-2) of the same compound?
Answer: Its MIC is greater than 256 mg/L.

Question: What about the MIC ([2]; strain SMA UFR137, genotype SME-1) of the same compound?
Answer: Its MIC is 256 mg/L.

Question: What about the MIC ([2]; strain SMA UFR138, genotype SME-1) of the same compound?
Answer: The MIC was 256 mg/L.

Question: And the MIC ([2]; strain SMA UFR139, genotype SME-2)?
Answer: Its MIC is greater than 256 mg/L.

Question: What about the MIC ([2]; strain SMA UFR141, genotype OXA-48) of the same compound?
Answer: The MIC was greater than 256 mg/L.

Question: And the MIC ([2]; strain SMA UFR142, genotype OXA-48)?
Answer: Its MIC is greater than 256 mg/L.

Question: What about the MIC ([2]; strain SMA UFR143, genotype CTX-M-15, OXA-1, OXA-48) of the same compound?
Answer: The MIC was greater than 256 mg/L.

Question: And the MIC ([2]; strain SMA UFR238, genotype OXA-48)?
Answer: Its MIC is greater than 256 mg/L.

Question: What about the MIC ([2]; strain SMA UFR239, genotype ESAC) of the same compound?
Answer: Its MIC is 256 mg/L.

Question: And the MIC ([3]; strain CKO ROU, genotype TEM-1, SHV-12, CTX-M-15, OXA-1, OXA-48)?
Answer: Its MIC is 64 mg/L.

Question: What about the MIC ([3]; strain CKO UFR149, genotype OXA-48) of the same compound?
Answer: The MIC was greater than 256 mg/L.

Question: What about the MIC ([3]; strain CKO UFR150, genotype TEM-1, OXA-48) of the same compound?
Answer: Its MIC is 64 mg/L.

Question: What about the MIC ([4]; strain ECO 4133, genotype TEM-30, OXA-1) of the same compound?
Answer: The MIC was 16 mg/L.

Question: And the MIC ([4]; strain ECO 5302, genotype TEM-1, OXA-1)?
Answer: The MIC was 32 mg/L.

Question: And the MIC ([4]; strain ECO 131119, genotype TEM-1, OXA-48)?
Answer: Its MIC is 8 mg/L.

Question: And the MIC ([4]; strain ECO 180070, genotype TEM-1, CTX-M-15)?
Answer: Its MIC is greater than 256 mg/L.

Question: What about the MIC ([4]; strain ECO 190314, genotype CTX-M-1) of the same compound?
Answer: Its MIC is greater than 256 mg/L.

Question: And the MIC ([4]; strain ECO 190317, genotype TEM-1, SHV-12, CTX-M-15, OXA-1)?
Answer: The MIC was greater than 512 mg/L.

Question: What about the MIC ([4]; strain ECO 190457, genotype CTX-M-15, OXA-1) of the same compound?
Answer: The MIC was greater than 256 mg/L.

Question: And the MIC ([4]; strain ECO 190549, genotype CTX-M-1)?
Answer: The MIC was greater than 256 mg/L.

Question: And the MIC ([4]; strain ECO 200159, genotype TEM-1, CTX-M-14)?
Answer: The MIC was greater than 256 mg/L.

Question: And the MIC ([4]; strain ECO 200259, genotype CTX-M-14)?
Answer: Its MIC is greater than 256 mg/L.

Question: What about the MIC ([4]; strain ECO 200344, genotype CTX-M-1) of the same compound?
Answer: Its MIC is greater than 256 mg/L.

Question: And the MIC ([4]; strain ECO 260096, genotype CTX-M-132)?
Answer: Its MIC is greater than 256 mg/L.

Question: What about the MIC ([4]; strain ECO 260304, genotype CTX-M-15) of the same compound?
Answer: The MIC was greater than 256 mg/L.

Question: And the MIC ([4]; strain ECO 260508, genotype TEM-1, CTX-M-15, OXA-1)?
Answer: Its MIC is greater than 256 mg/L.

Question: And the MIC ([4]; strain ECO RGN238, genotype OXA-1)?
Answer: The MIC was 16 mg/L.

Question: What about the MIC ([4]; strain ECO UFR15, genotype TEM-1, OXA-48) of the same compound?
Answer: The MIC was 16 mg/L.

Question: What about the MIC ([4]; strain ECO UFR16, genotype TEM-1, CTX-M-15, OXA-1, OXA-48) of the same compound?
Answer: Its MIC is greater than 256 mg/L.

Question: What about the MIC ([4]; strain ECO UFR17, genotype TEM-1, CTX-M-15, CMY-2, OXA-1, OXA-181) of the same compound?
Answer: The MIC was greater than 256 mg/L.

Question: What about the MIC ([4]; strain ECO UFR18, genotype CTX-M-15, OXA-204) of the same compound?
Answer: Its MIC is greater than 256 mg/L.

Question: And the MIC ([4]; strain ECO UFR19, genotype CTX-M-15, CMY-2, OXA-1, OXA-204)?
Answer: The MIC was greater than 256 mg/L.

Question: What about the MIC ([4]; strain ECO UFR20, genotype SHV-1, CTX-M-15, OXA-1, OXA-232) of the same compound?
Answer: Its MIC is greater than 256 mg/L.

Question: And the MIC ([4]; strain ECO UFR39, genotype CTX-M-15, NDM-1)?
Answer: The MIC was greater than 256 mg/L.

Question: And the MIC ([4]; strain ECO UFR61O, genotype TEM-1, KPC-2)?
Answer: The MIC was greater than 256 mg/L.

Question: What about the MIC ([4]; strain ECO UFR62, genotype TEM-1, CTX-M-9, KPC-2) of the same compound?
Answer: Its MIC is greater than 256 mg/L.

Question: And the MIC ([4]; strain ECO UFR74, genotype SHV-1, DHA-1)?
Answer: Its MIC is greater than 256 mg/L.

Question: And the MIC ([4]; strain ECO UFR86, genotype ompC-, ompF-)?
Answer: The MIC was 64 mg/L.

Question: What about the MIC ([4]; strain ECO UFR174, genotype TEM-1, KPC-2, OXA-1) of the same compound?
Answer: Its MIC is greater than 256 mg/L.

Question: What about the MIC ([4]; strain ECO UFR175, genotype TEM-1, KPC-2, OXA-9) of the same compound?
Answer: Its MIC is greater than 256 mg/L.

Question: And the MIC ([4]; strain ECO UFR176, genotype KPC-3, OXA-9*)?
Answer: The MIC was greater than 256 mg/L.

Question: And the MIC ([4]; strain ECO UFR184, genotype CTX-M-15, CMY-4, OXA-1, OXA-204)?
Answer: Its MIC is greater than 256 mg/L.

Question: And the MIC ([4]; strain ECO UFR185, genotype OXA-48)?
Answer: The MIC was greater than 256 mg/L.

Question: What about the MIC ([4]; strain ECO UFR186, genotype TEM-1, CTX-M-14, OXA-48) of the same compound?
Answer: The MIC was greater than 256 mg/L.

Question: And the MIC ([4]; strain ECO UFR187, genotype CTX-M-15, OXA-48)?
Answer: The MIC was greater than 256 mg/L.

Question: And the MIC ([4]; strain ECO UFR189, genotype TEM-1, CTX-M-15, OXA-48)?
Answer: The MIC was greater than 256 mg/L.

Question: What about the MIC ([4]; strain ECO UFR190, genotype CTX-M-24, OXA-48) of the same compound?
Answer: The MIC was greater than 256 mg/L.

Question: And the MIC ([4]; strain ECO UFR191, genotype TEM-1, CTX-M-24, OXA-48)?
Answer: The MIC was greater than 256 mg/L.

Question: What about the MIC ([4]; strain ECO UFR207, genotype CTX-M-15) of the same compound?
Answer: Its MIC is greater than 256 mg/L.

Question: What about the MIC ([4]; strain ECO UFR208, genotype SHV-12) of the same compound?
Answer: The MIC was greater than 256 mg/L.

Question: And the MIC ([4]; strain ECO UFR209, genotype TEM-1, CTX-M-15)?
Answer: Its MIC is greater than 256 mg/L.

Question: What about the MIC ([4]; strain ECO UFR210, genotype SHV-12) of the same compound?
Answer: Its MIC is greater than 256 mg/L.

Question: And the MIC ([4]; strain ECO UFR211, genotype TEM-24)?
Answer: Its MIC is 64 mg/L.

Question: What about the MIC ([4]; strain ECO UFR212, genotype CMY-2) of the same compound?
Answer: The MIC was greater than 256 mg/L.

Question: And the MIC ([4]; strain ECO UFR218, genotype TEM-1, SHV-1, CTX-M-15)?
Answer: Its MIC is greater than 256 mg/L.

Question: And the MIC ([5]; strain CFR UFR10, genotype OXA-48)?
Answer: Its MIC is greater than 256 mg/L.

Question: And the MIC ([5]; strain CFR UFR11, genotype TEM-1, OXA-1, OXA-48)?
Answer: The MIC was greater than 256 mg/L.

Question: And the MIC ([5]; strain CFR UFR83, genotype TEM-3, AmpC)?
Answer: Its MIC is greater than 256 mg/L.

Question: And the MIC ([5]; strain CFR UFR146, genotype TEM-1, KPC-2)?
Answer: Its MIC is greater than 256 mg/L.

Question: What about the MIC ([5]; strain CFR UFR248, genotype CTX-M-15) of the same compound?
Answer: The MIC was greater than 256 mg/L.

Question: And the MIC ([5]; strain CFR UFR249, genotype TEM-1, CTX-M-15)?
Answer: The MIC was greater than 256 mg/L.

Question: And the MIC ([5]; strain CFR UFR250, genotype TEM-1, SHV-28, CTX-M-15)?
Answer: Its MIC is greater than 256 mg/L.

Question: And the MIC ([5]; strain CFR UFR253, genotype TEM-1, SHV-12, OXA-48)?
Answer: The MIC was 32 mg/L.

Question: And the MIC ([5]; strain CFR UFR254, genotype VEB-1b, OXA-48, qnrA)?
Answer: The MIC was 32 mg/L.

Question: What about the MIC ([6]; strain EAE 49469, genotype AmpC) of the same compound?
Answer: The MIC was greater than 128 mg/L.

Question: And the MIC ([6]; strain EAE 200261, genotype TEM-x, AmpC)?
Answer: Its MIC is greater than 256 mg/L.

Question: And the MIC ([6]; strain EAE UFR199, genotype TEM-1b, SHV-12, KPC-2, OXA-9)?
Answer: Its MIC is greater than 256 mg/L.

Question: And the MIC ([6]; strain EAE UFR201, genotype TEM-1, SHV-12, CTX-M-15)?
Answer: The MIC was greater than 256 mg/L.

Question: And the MIC ([6]; strain EAE UFR202, genotype TEM-24)?
Answer: Its MIC is greater than 256 mg/L.

Question: And the MIC ([6]; strain EAE UFR213, genotype TEM-24)?
Answer: Its MIC is greater than 256 mg/L.
